Assay results taken from US20230265151A1, “GIP/GLP1 CO-AGONIST COMPOUNDS” (priority 2020, published 2023).
Read-outs that look alike come from different tables or passages of the source. *1 amine or outer side, *2 acyl side, *3 side chain or, on linkers, in order; H or OH if unused. Where a SMILES comes first, the peptide text is derived from it. Side-chain parts run from the residue outwards. [ ]: non-standard residue; d: D form. The star is where a group is joined. αMePhe(2-F) = C[C@](N)(Cc1ccccc1F)C(=O)O; γGlu = O=C(O)[C@H](CCC(=O)[*:2])N[*:1]; C14 diacid = O=C(O)CCCCCCCCCCCCC(=O)*; εLys = N[C@@H](CCCCN[*:1])C(=O)[*:2]; αMeY = C[C@](N)(Cc1ccc(O)cc1)C(=O)O; 4Pal = N[C@@H](Cc1ccncc1)C(=O)O; αMeL = CC(C)C[C@](C)(N)C(=O)O; Orn = NCCC[C@H](N)C(=O)O; Aib = CC(C)(N)C(=O)O

Columns and labels:
Format in all cases: cell-based
hGIPR = target: T1, hGIPR (Homo sapiens, UniProt P48546); assay: Functional cAMP formation (HTRF) in HEK-293 clonal cells expressing hGIPR, 0.1% bovine casein, without or with 1.0% human serum albumin; conditions: for EC50: geometric mean
T1 construct: expressed in transfected cells
T1 sequence (P48546 22-466): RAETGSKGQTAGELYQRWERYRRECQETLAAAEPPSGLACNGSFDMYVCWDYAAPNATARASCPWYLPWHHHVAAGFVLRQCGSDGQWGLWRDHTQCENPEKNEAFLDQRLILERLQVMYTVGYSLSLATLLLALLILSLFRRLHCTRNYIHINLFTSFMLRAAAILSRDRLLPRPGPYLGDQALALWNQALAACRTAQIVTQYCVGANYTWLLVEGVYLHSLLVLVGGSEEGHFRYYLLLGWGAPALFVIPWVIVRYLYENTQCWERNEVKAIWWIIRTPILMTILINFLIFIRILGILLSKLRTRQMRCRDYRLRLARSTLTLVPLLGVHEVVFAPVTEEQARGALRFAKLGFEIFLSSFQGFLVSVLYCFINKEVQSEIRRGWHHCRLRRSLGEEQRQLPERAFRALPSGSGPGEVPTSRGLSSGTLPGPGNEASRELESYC
How it was run: (§1)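 Readings of the HTRF 665/620 nm ratio, which falls as cAMP rises, were converted to nM cAMP using a standard curve after 30 min peptide exposure at 37° C.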

hGLP-1R = hGLP-1R (Homo sapiens, UniProt P43220); assay: Functional cAMP formation (HTRF) in HEK-293 clonal cells expressing hGLP-1R, 0.1% bovine casein, without or with 1.0% human serum albumin; design: expressed in transfected cells; conditions: for EC50: geometric mean
hGLP-1R, sequence (P43220 24-463): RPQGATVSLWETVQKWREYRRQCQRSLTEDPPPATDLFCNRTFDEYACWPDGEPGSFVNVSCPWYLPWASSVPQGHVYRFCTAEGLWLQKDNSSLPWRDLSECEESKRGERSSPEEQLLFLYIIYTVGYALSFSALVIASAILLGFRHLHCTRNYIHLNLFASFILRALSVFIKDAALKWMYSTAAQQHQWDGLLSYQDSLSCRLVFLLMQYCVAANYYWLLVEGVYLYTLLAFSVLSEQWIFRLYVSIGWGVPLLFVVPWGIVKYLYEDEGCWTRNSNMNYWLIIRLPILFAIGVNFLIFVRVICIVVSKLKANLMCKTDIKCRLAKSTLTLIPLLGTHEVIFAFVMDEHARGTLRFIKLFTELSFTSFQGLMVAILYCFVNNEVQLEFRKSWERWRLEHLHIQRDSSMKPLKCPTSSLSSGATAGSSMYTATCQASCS
How it was run: as §1

hGCGR = target: T2, hGCGR (Homo sapiens, UniProt P47871); assay: Functional cAMP formation (HTRF) in HEK-293 clonal cells expressing hGCGR, 0.1% bovine casein, without or with 1.0% human serum albumin; conditions: geometric mean
T2 construct: expressed in transfected cells
T2 sequence (P47871 26-477): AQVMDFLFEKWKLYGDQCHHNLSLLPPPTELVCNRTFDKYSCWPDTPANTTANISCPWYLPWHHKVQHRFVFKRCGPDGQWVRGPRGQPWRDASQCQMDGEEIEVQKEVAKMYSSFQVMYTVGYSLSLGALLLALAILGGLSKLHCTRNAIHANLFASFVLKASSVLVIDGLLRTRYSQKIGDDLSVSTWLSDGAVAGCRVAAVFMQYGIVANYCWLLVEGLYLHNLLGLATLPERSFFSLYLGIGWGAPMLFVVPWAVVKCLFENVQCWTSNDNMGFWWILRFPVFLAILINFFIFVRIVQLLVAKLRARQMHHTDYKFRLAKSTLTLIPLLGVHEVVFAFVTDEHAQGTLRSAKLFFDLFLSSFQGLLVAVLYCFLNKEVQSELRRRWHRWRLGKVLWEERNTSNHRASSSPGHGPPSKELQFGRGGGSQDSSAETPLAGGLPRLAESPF
How it was run: as §1

[1] = HEK293, 0.1% bovine casein and 1.0% human serum albumin, 37° C., percent of maximal response to GIP(1-42)NH2, read-out: hGIPR Emax, % ± SEM
[2] = HEK293, percent of maximal response to GIP(1-42)NH2, 37° C., 0.1% bovine casein, arithmetic mean, read-out: hGIPR Emax, % ± SEM
[3] = cAMP, incubated at 37° C., 0.1% bovine casein (no human serum albumin), read-out: hGIPR EC50, nM (SEM, n)
[4] = 0.1% bovine casein and 1.0% human serum albumin, 37° C., read-out: hGLP-1R EC50, nM (SEM, n)
[5] = HEK293, 0.1% bovine casein and 1.0% human serum albumin, 37° C., percent of maximal response to GLP-1(7-36)NH2, read-out: hGLP-1R Emax, % ± SEM
[6] = 0.1% bovine casein and 1.0% human serum albumin, 37° C., read-out: hGCGR EC50, nM (SEM, n)
[7] = cAMP, incubated at 37° C., 0.1% bovine casein (no human serum albumin), read-out: hGCGR EC50, nM (SEM, n)
[8] = 0.1% bovine casein and 1.0% human serum albumin, 37° C., read-out: hGIPR EC50, nM (SEM, n)
[9] = cAMP, incubated at 37° C., 0.1% bovine casein (no human serum albumin), read-out: hGLP-1R EC50, nM (SEM, n)

Row | SMILES | Emax (hGIPR; [1]) [%] | Emax (hGIPR; [2]) [%] | EC50 (hGIPR; [3]) [nM] | EC50 (hGLP-1R; [4]) [nM] | Emax (hGLP-1R; [5]) [%] | Emax (hGLP-1R; HEK293, percent of maximal response to GLP-1(7-36)NH2, 37° C., 0.1% bovine casein, arithmetic mean, read-out: hGLP-1R Emax, % ± SEM) [%] | EC50 (hGCGR; [6]) [nM] | EC50 (hGCGR; [7]) [nM] | EC50 (hGIPR; [8]) [nM] | EC50 (hGLP-1R; [9]) [nM] | Emax (hGIPR; HEK293, read-out: hGIPR Emax, % ± SEM, 0.1% bovine casein and 1.0% human serum albumin, 37° C., percent of maximal response to GIP(1-42)NH2) [%] | Emax (hGIPR; HEK293, read-out: hGIPR Emax, % ± SEM, cAMP, 37° C., 0.1% bovine casein, percent of maximal response to GIP(1-42)NH2, arithmetic mean) [%] | EC50 (hGIPR; hGIPR EC50, nM (SEM, n), cAMP, 37° C., 0.1% bovine casein (no human serum albumin)) [nM] | Emax (hGLP-1R; HEK293, read-out: hGLP-1R Emax, % ± SEM, 0.1% bovine casein and 1.0% human serum albumin, 37° C., percent of maximal response to GLP-1(7-36)NH2) [%] | EC50 (hGLP-1R; hGLP-1R EC50, nM (SEM, n), cAMP, 37° C., 0.1% bovine casein (no human serum albumin)) [nM] | EC50 (hGCGR; hGCGR EC50, nM (SEM, n), 0.1% bovine casein and 1.0% human serum albumin, 37° C.) [nM] | EC50 (hGCGR; hGCGR EC50, nM (SEM, n), cAMP, 37° C., 0.1% bovine casein (no human serum albumin)) [nM]
1 | CC[C@H](C)[C@H](NC(=O)[C@H](CC(C)C)NC(=O)[C@](C)(Cc1ccc(O)cc1)NC(=O)[C@@H](CCC(=O)O)NC(=O)[C@@H](NC(=O)[C@H](Cc1ccccc1)NC(=O)[C@H](CCC(=O)O)NC(=O)C(C)(C)NC(=O)[C@H](CCC(N)=O)NC(=O)[C@H](C)NC(=O)[C@H](CCCCNC(=O)COCCOCCNC(=O)COCCOCCNC(=O)CCCCCCCCCCCCC(=O)O)NC(=O)[C@H](CCCN)NC(=O)[C@H](CC(=O)O)NC(=O)[C@H](CC(C)C)NC(=O)[C@](C)(CC(C)C)NC(=O)[C@@H](NC(=O)[C@H](CO)NC(=O)[C@H](Cc1ccncc1)NC(=O)[C@H](CC(=O)O)NC(=O)[C@H](CO)NC(=O)[C@@H](NC(=O)[C@](C)(Cc1ccccc1F)NC(=O)[C@@H](NC(=O)CNC(=O)[C@H](CCC(=O)O)NC(=O)C(C)(C)NC(=O)[C@@H](N)Cc1ccc(O)cc1)[C@@H](C)O)[C@@H](C)O)[C@@H](C)CC)[C@@H](C)CC)C(=O)N[C@@H](CCC(=O)O)C(=O)NCC(=O)NCC(=O)N1CCC[C@H]1C(=O)N[C@@H](CO)C(=O)N[C@@H](CO)C(=O)NCC(=O)N[C@@H](C)C(=O)N1CCC[C@H]1C(=O)N1CCC[C@H]1C(=O)N1CCC[C@H]1C(=O)N[C@@H](CO)C(=O)N[C@@H](CCCCNC(=O)COCCOCCNC(=O)COCCOCCNC(=O)CCCCCCCCCCCCC(=O)O)C(N)=O [Example 221] | 67.4 | 81.8 | 0.0279 | 17.9 | 92.3 | 83 | > 9950 | > 9950 | – | – | – | – | – | – | – | – | –
2 | CC[C@H](C)[C@H](NC(=O)[C@H](CC(C)C)NC(=O)[C@](C)(Cc1ccc(O)cc1)NC(=O)[C@@H](CCC(=O)O)NC(=O)[C@@H](NC(=O)[C@H](Cc1ccccc1)NC(=O)[C@H](CCC(=O)O)NC(=O)C(C)(C)NC(=O)[C@H](CCC(N)=O)NC(=O)[C@H](C)NC(=O)[C@H](CCCCNC(=O)[C@@H](N)CCCCNC(=O)CC[C@H](NC(=O)CCCCCCCCCCCCC(=O)O)C(=O)O)NC(=O)[C@H](CCCN)NC(=O)[C@H](CC(=O)O)NC(=O)[C@H](CC(C)C)NC(=O)[C@](C)(CC(C)C)NC(=O)[C@@H](NC(=O)[C@H](CO)NC(=O)[C@H](Cc1ccncc1)NC(=O)[C@H](CC(=O)O)NC(=O)[C@H](CO)NC(=O)[C@@H](NC(=O)[C@](C)(Cc1ccccc1F)NC(=O)[C@@H](NC(=O)CNC(=O)[C@H](CCC(=O)O)NC(=O)C(C)(C)NC(=O)[C@@H](N)Cc1ccc(O)cc1)[C@@H](C)O)[C@@H](C)O)[C@@H](C)CC)[C@@H](C)CC)C(=O)N[C@@H](CCC(=O)O)C(=O)NCC(=O)NCC(=O)N[C@@H](CCCCNC(=O)[C@@H](N)CCCCNC(=O)CC[C@H](NC(=O)CCCCCCCCCCCCC(=O)O)C(=O)O)C(N)=O [Example 186] (H-Y[Aib]EGT[αMePhe(2-F)]TSD[4Pal]SI[αMeL]LD[Orn]K([εLys-γGlu-C14 diacid])AQ[Aib]EFI[dE][αMeY]LIEGGK([εLys-γGlu-C14 diacid])-NH2; N-terminus assumed) | 85.6 | – | 0.0274 | 24.3 | – | – | > 9950 | > 9950 | 2.19 | 0.371 | – | – | – | – | – | – | –
3 | CC[C@H](C)[C@H](NC(=O)[C@H](CCCN)NC(=O)[C@H](CC(=O)O)NC(=O)[C@H](CC(C)C)NC(=O)[C@](C)(CC(C)C)NC(=O)[C@@H](NC(=O)C(C)(C)NC(=O)[C@H](Cc1ccc(O)cc1)NC(=O)[C@H](CC(=O)O)NC(=O)[C@H](CO)NC(=O)[C@@H](NC(=O)[C@](C)(Cc1ccccc1F)NC(=O)[C@@H](NC(=O)CNC(=O)[C@H](CCC(=O)O)NC(=O)C(C)(C)NC(=O)[C@@H](N)Cc1ccc(O)cc1)[C@@H](C)O)[C@@H](C)O)[C@@H](C)CC)C(=O)N[C@@H](C)C(=O)N[C@@H](CCC(N)=O)C(=O)NC(C)(C)C(=O)N[C@@H](CCC(=O)O)C(=O)N[C@@H](Cc1ccccc1)C(=O)N[C@H](C(=O)N[C@@H](CCCCNC(=O)COCCOCCNC(=O)COCCOCCNC(=O)CC[C@H](NC(=O)CCCCCCCCCCOc1ccc(C(=O)O)cc1)C(=O)O)C(=O)N[C@@](C)(Cc1ccc(O)cc1)C(=O)N[C@@H](CC(C)C)C(=O)N[C@H](C(=O)N[C@@H](CCCCNC(=O)COCCOCCNC(=O)COCCOCCNC(=O)CC[C@H](NC(=O)CCCCCCCCCCOc1ccc(C(=O)O)cc1)C(=O)O)C(=O)NCC(=O)NCC(=O)N1CCC[C@H]1C(=O)N[C@@H](CO)C(=O)N[C@@H](CO)C(=O)NCC(=O)N[C@@H](C)C(=O)N1CCC[C@H]1C(=O)N1CCC[C@H]1C(=O)N1CCC[C@H]1C(=O)N[C@@H](CO)C(N)=O)[C@@H](C)CC)[C@@H](C)CC [Example 312] | – | – | – | – | – | – | – | – | – | – | 89.5 | 105 | 0.00757 | 112 | 0.663 | > 9950 | > 9950
4 | CC[C@H](C)[C@H](NC(=O)[C@H](CCCN)NC(=O)[C@H](CC(=O)O)NC(=O)[C@H](CC(C)C)NC(=O)[C@](C)(CC(C)C)NC(=O)[C@@H](NC(=O)[C@H](CO)NC(=O)[C@H](Cc1ccncc1)NC(=O)[C@H](CC(=O)O)NC(=O)[C@H](CO)NC(=O)[C@@H](NC(=O)[C@](C)(Cc1ccccc1F)NC(=O)[C@@H](NC(=O)CNC(=O)[C@H](CCC(=O)O)NC(=O)C(C)(C)NC(=O)[C@@H](N)Cc1ccc(O)cc1)[C@@H](C)O)[C@@H](C)O)[C@@H](C)CC)C(=O)N[C@@H](C)C(=O)N[C@@H](CCC(N)=O)C(=O)NC(C)(C)C(=O)N[C@@H](CCC(=O)O)C(=O)N[C@@H](Cc1ccccc1)C(=O)N[C@H](C(=O)N[C@@H](CCCCNC(=O)COCCOCCNC(=O)COCCOCCNC(=O)CC[C@H](NC(=O)CCCCCCCCCCCCC(=O)O)C(=O)O)C(=O)N[C@@](C)(Cc1ccc(O)cc1)C(=O)N[C@@H](CC(C)C)C(=O)N[C@H](C(=O)N[C@@H](CCC(=O)O)C(=O)NCC(=O)NCC(=O)N[C@@H](CCCCNC(=O)COCCOCCNC(=O)COCCOCCNC(=O)CC[C@H](NC(=O)CCCCCCCCCCCCC(=O)O)C(=O)O)C(=O)N[C@@H](CO)C(=O)N[C@@H](CO)C(=O)NCC(=O)N[C@@H](C)C(=O)N1CCC[C@H]1C(=O)N1CCC[C@H]1C(=O)N1CCC[C@H]1C(=O)N[C@@H](CO)C(N)=O)[C@@H](C)CC)[C@@H](C)CC [Example 71] | – | 93.8 ± 3.59 | – | 43.7 | 100 | – | > 9950 | > 9950 | 3.07 | 0.246 | – | – | – | – | – | – | –
